Common to all, as to type: cell-based
Series [1] is described as follows: CC50 assay (cytopathology in HEp-2 cells). The note with it: human, HEp-2 cells, 4 days, CellTiter-Glo; Table 1; read-out: RSV CC50. The protocol: The cytopathology of compounds in HEp-2 cells is determined in the following manner. HEp-2 cells are suspended in DMEM+GlutaMAX (supplemented with 10% FBS and 1% Penicillin/Streptomycin) and seeded into 96 well plates (3×10^3/well). After a 4-hour incubation at 37° C.+5% CO2, three-fold serial dilutions of compounds are added to each well using an HP D300e digital dispenser. The cells are then incubated for 4 days at 37° C. and 5% CO2. The final volume in each well is 200 μL. Untreated wells are included as controls for 100% cell viability, while compounds treated with 5 uM puromycin are included as controls for 0% viability. Following the incubation, 100 μL of culture supernatant is removed from each well and replaced with 100 μL of CellTiter-Glo reagent (Promega, Madison, WI, Cat #G7573). The plates are then rocked for 2 minutes followed by a 10-minute incubation at 25° C. Compound-induced cytopathic effect is then assessed by measuring luminescence signal using and Envision plate reader. Values are normalized to the untreated DMSO and puromycin-treated controls (as 100% and 0% viability, respectively) and data is fit using non-linear regression analysis using XLfit4. The CC50 value for each compound is then determined as the concentration reducing cell viability by 50%.

The test system of a further series is SARS-CoV-2. Put plainly: SARS-CoV-2 antiviral assay (A549-hACE2, Nano luciferase). The note with it: Severe acute respiratory syndrome coronavirus 2, 48 h, A549-hACE2 cells, SARS-CoV2-Nano, MOI 0.025, 48 h.
Series [2] concerns Respiratory syncytial virus (RSV) strain A2. In words: RSV antiviral assay (HEp-2, 96 well). The note with it: human respiratory syncytial virus, HEp-2, 96 h, read-out: EC50-RSV-HEP-2-96, HEp-2 cells, RSV A2, MOI=4, 4 days, 96 well, CellTiter-Glo; Table 1. (ATP-based viability assays read luminescence as a measure of living cells.)
The subject of series [3] is Recombinant respiratory syncytial virus expressing the firefly luciferase protein (RSV-Fluc). Put plainly: microbe, parasite or virus in culture. The note with it: Table 4.
For series [4], the system named is Respiratory syncytial virus recombinant with luciferase (RSV-Luc5). In words: microbe, parasite or virus in culture. The note with it: human respiratory syncytial virus, HEp-2, 72 h, read-out: EC50 RSVFluc-Hep2 384, HEp-2 cells, RSV-Luc5, MOI=0.5, 3 days, 384 well, One-Glo; Table 1.
Series [5] relates to Respiratory syncytial virus (RSV) strain A2. In words: Hep-2 RSV2 384-well assay (EC50-HEP2-384). The note with it: HEp-2 cells, RSV A2, MOI=4, 4 days, Table 1.
[6] abbreviates: Table 1, read-out: SARS-CoV-2 EC50.
Where [7] appears, read: Table 4, read-out: EC50 SARS CoV2.
The mark [8] stands for this setting: human respiratory syncytial virus, NHBE, 72 h, read-out: EC50 RSVFluc NHBE 96, NHBE cells, RSV-Fluc, MOI of 0.1, three days, 96 well.
[9] abbreviates: human respiratory syncytial virus, HEp-2, 96 h.
Setting [10] is: read-out: EC50 RSVFluc NHBE 96, NHBE cells, RSV-Fluc, MOI of 0.1, three days, 96 well.

Where two headings read alike, the source gives them in different places.

Regarding `CCC(=O)O[C@H]1[C@@H](OC(=O)CC)[C@](C#N)(c2ccc3c(N)ncnn23)O[C@@H]1CO[P@@](=O)(N[C@@H](C)C(=O)OCC(CC)CC)Oc1ccccc1` [Example 3, (2R,3R,4R,5R)-2-(4-aminopyrrolo[2,1-f][1,2,4]triazin-7-yl)-2-cyano-5-((((S)—(((S)-1-(2-ethylbutoxy)-1-oxopropan-2-yl)amino)(phenoxy)phosphoryl)oxy)methyl) tetrahydrofuran-3,4-diyl Dipropionate], the CC50 (in general, the concentration giving 50% cytotoxicity) at 4 days in series [1] is 5820 nM. The EC50 – broadly, the concentration at which the effect is half-maximal – in the series with SARS-CoV-2 (setting [6]) came to 113 nM; with SARS-CoV-2 (setting [7]), 129 nM; in series [2], 44.1 nM; in series [3] (setting [8]), 5.55 nM; in series [4] it was 18.3 nM.

In the case of `CCC(CC)COC(=O)[C@H](C)NP(=O)(OC[C@H]1O[C@@](C#N)(c2ccc3c(N)ncnn23)[C@H](O)[C@@H]1O)Oc1ccc(C(C)(C)C)cc1` (mixture of isomers) [Example 13, 2-ethylbutyl (2S)-2-[[[(2R,5R)-5-(4-aminopyrrolo[2,1-f][1,2,4]triazin-7-yl)-5-cyano-3,4-dihydroxy-tetrahydrofuran-2-yl]methoxy-(4-tert-butylphenoxy)phosphoryl]amino]propanoate], the EC50 in series [5] (setting [9]) turned out to be 58.8 nM; in the series on SARS-CoV-2 (setting [6]), 88.9 nM; in the series with SARS-CoV-2 (setting [7]), 319 nM; in series [2] it was 34.5 nM; in series [3] (setting [8]) it was 2.92 nM; in series [4], 20.1 nM. Also, the CC50 at 4 days in series [1] was 3800 nM.

As to `CCC(CC)COC(=O)[C@H](C)N[P@](=O)(OC[C@H]1O[C@@](C#N)(c2ccc3c(N)ncnn23)[C@H](OC(C)=O)[C@@H]1OC(C)=O)Oc1ccccc1` [Example 2, (2R,3R,4R,5R)-2-(4-aminopyrrolo[2,1-f][1,2,4]triazin-7-yl)-2-cyano-5-((((S)—(((S)-1-(2-ethylbutoxy)-1-oxopropan-2-yl)amino)(phenoxy)phosphoryl)oxy)methyl) tetrahydrofuran-3,4-diyl Diacetate], the 50% cytotoxic concentration (CC50) at 4 days in series [1] was 8410 nM. For the same molecule, the values for the EC50 (with SARS-CoV-2 (setting [7]); in series [2]; in series [3] (setting [8])) were 102 nM, 84.4 nM and 4.53 nM, respectively.

Consider `CC(C)C(=O)O[C@H]1[C@@H](OC(=O)C(C)C)[C@](C#N)(c2ccc3c(N)ncnn23)O[C@@H]1COP(=O)(N[C@@H](C)C(=O)OC1CCC1)Oc1ccccc1` (stereo partly drawn) [Example 21, (2R,3R,4R,5R)-2-(4-Aminopyrrolo[2,1-f][1,2,4]triazin-7-yl)-2-cyano-5-((((((S)-1-cyclobutoxy-1-oxopropan-2-yl)amino)(phenoxy)phosphoryl)oxy)methyl) tetrahydrofuran-3,4-diyl bis(2-methylpropanoate)], for which the concentration for a half-maximal effect (EC50) in series [5] is 58.8 nM; in the series on SARS-CoV-2 (setting [6]), 123 nM; in the series on SARS-CoV-2 (setting [7]), 234 nM; in series [2], 19.8 nM; in series [3] (setting [10]), 5.36 nM; in series [4] it was 29.4 nM. Moreover, in series [1], the CC50 at 4 days came to 3110 nM.

As to `CC(=O)O[C@H]1[C@@H](OC(C)=O)[C@](C#N)(c2ccc3c(N)ncnn23)O[C@@H]1COP(=O)(N[C@@H](C)C(=O)OC1CC2(CCC2)C1)Oc1ccc(C(C)(C)C)cc1` (stereo partly drawn) [Example 30, Spiro[3.3]heptan-2-yl (2S)-2-[[(4-tert-butylphenoxy)-[[(2R,3R,4R,5R)-3,4-diacetoxy-5-(4-aminopyrrolo[2,1-f][1,2,4]triazin-7-yl)-5-cyano-tetrahydrofuran-2-yl]methoxy]phosphoryl]amino]propanoate], the EC50 in series [5] (setting [9]) is 39.7 nM; with SARS-CoV-2 (setting [7]) it was 202 nM; in series [2], 7.3 nM; in series [3] (setting [10]), 4.49 nM; in series [4], 27.1 nM. Also, the CC50 at 4 days in series [1] was found to be 2310 nM.

Take `CCOC(=O)[C@H](C)NP(=O)(OC[C@H]1O[C@@](C#N)(c2ccc3c(N)ncnn23)[C@H](OC(=O)C(C)C)[C@@H]1OC(=O)C(C)C)Oc1ccc(C(C)(C)C)cc1` (stereo partly drawn) [Example 18, (2R,3R,4R,5R)-2-(4-aminopyrrolo[2,1-f][1,2,4]triazin-7-yl)-5-((((4-(tert-butyl)phenoxy)(((S)-1-ethoxy-1-oxopropan-2-yl)amino)phosphoryl)oxy)methyl)-2-cyanotetrahydrofuran-3,4-diyl bis(2-methylpropanoate)]: the EC50 in series [5] (setting [9]) was found to be 83.4 nM; in the series on SARS-CoV-2 (setting [7]) it was 210 nM; in series [2], 7.75 nM; in series [3] (setting [8]), 6.69 nM. In series [1], the CC50 at 4 days is 2620 nM.

Take `CCC(CC)COC(=O)[C@H](C)N[P@](=O)(OC[C@H]1O[C@@](C#N)(c2ccc3c(=N)n(COP(=O)(O)O)cnn23)[C@H](O)[C@@H]1O)Oc1ccccc1` [Example 28, 2-Ethylbutyl ((S)-(((2R,3S,4R,5R)-5-cyano-3,4-dihydroxy-5-(4-imino-3-((phosphonooxy)methyl)-3,4-dihydropyrrolo[2,1-f][1,2,4]triazin-7-yl)tetrahydrofuran-2-yl)methoxy)(phenoxy)phosphoryl)-L-alaninate]: the CC50 at 4 days in series [1] was found to be 7450 nM. In addition, the EC50 amounted to 1620 nM in the series with SARS-CoV-2 (setting [7]), 31 nM in series [2], 35 nM in series [3] (setting [8]) and 21.5 nM in series [4].

In the case of `COC(C)(C)COC(=O)[C@H](C)NP(=O)(OC[C@H]1O[C@@](C#N)(c2ccc3c(N)ncnn23)[C@H](OC(=O)C(C)C)[C@@H]1OC(=O)C(C)C)Oc1ccccc1` (stereo partly drawn) [Example 25, (2R,3R,4R,5R)-2-(4-aminopyrrolo[2,1-f][1,2,4]triazin-7-yl)-2-cyano-5-((((((S)-1-(2-methoxy-2-methylpropoxy)-1-oxopropan-2-yl)amino)(phenoxy)phosphoryl)oxy)methyl)tetrahydrofuran-3,4-diyl bis(2-methylpropanoate)], the CC50 at 4 days in series [1] came to 4780 nM. Further, the EC50 came to 122 nM with SARS-CoV-2 (setting [6]), 350 nM in the series with SARS-CoV-2 (setting [7]) and 11.1 nM in series [2].

On to `CCC(CC)COC(=O)[C@H](C)N[P@](=O)(OC[C@H]1O[C@@](C#N)(c2ccc3c(N)ncnn23)[C@H](OC(=O)C(C)C)[C@@H]1OC(=O)C(C)C)Oc1ccccc1` [Example 1, (2R,3R,4R,5R)-2-(4-aminopyrrolo[2,1-f][1,2,4]triazin-7-yl)-2-cyano-5-((((S)—(((S)-1-(2-ethylbutoxy)-1-oxopropan-2-yl)amino)(phenoxy)phosphoryl)oxy)methyl) tetrahydrofuran-3,4-diyl bis(2-methylpropanoate)], for which the CC50 at 4 days in series [1] was determined as 5490 nM. Also, the EC50 came to 338 nM in the series on SARS-CoV-2 (setting [7]), 122 nM in series [2] and 6.56 nM in series [3] (setting [8]).

Consider `CC(C)OC(=O)[C@H](C)N[P@](=O)(OC[C@H]1O[C@@](C#N)(c2ccc3c(N)ncnn23)[C@H](OC(=O)C(C)C)[C@@H]1OC(=O)C(C)C)Oc1ccccc1` [Example 7, (2R,3R,4R,5R)-2-(4-aminopyrrolo[2,1-f][1,2,4]triazin-7-yl)-2-cyano-5-((((S)—(((S)-1-isopropoxy-1-oxopropan-2-yl)amino)(phenoxy)phosphoryl)oxy)methyl) tetrahydrofuran-3,4-diyl bis(2-methylpropanoate)], for which, in series [1], the CC50 at 4 days was 12600 nM. In addition, the EC50 with SARS-CoV-2 (setting [6]) is 241 nM; with SARS-CoV-2 (setting [7]), 372 nM; in series [2], 77.9 nM.

In the case of `CCC(CC)COC(=O)[C@H](C)NP(=O)(OC[C@H]1O[C@@](C#N)(c2ccc3c(N)ncnn23)[C@H](OC(=O)C(C)C)[C@@H]1OC(=O)C(C)C)Oc1ccc(C(C)(C)C)cc1` (some centres unmarked) [Example 14], the CC50 at 4 days in series [1] was determined as 2730 nM. Further, the EC50 with SARS-CoV-2 (setting [7]) was found to be 186 nM; in series [2], 29 nM; in series [3] (setting [8]), 3.72 nM.

For the molecule `COC(=O)[C@H](C)NP(=O)(OC[C@H]1O[C@@](C#N)(c2ccc3c(N)ncnn23)[C@H](O)[C@@H]1O)Oc1ccc(C(C)(C)C)cc1` (stereo partly drawn) [Example 15, Methyl ((((2R,3S,4R,5R)-5-(4-aminopyrrolo[2,1-f][1,2,4]triazin-7-yl)-5-cyano-3,4-dihydroxytetrahydrofuran-2-yl)methoxy)(4-(tert-butyl)phenoxy)phosphoryl)-L-alaninate], in series [1], the CC50 at 4 days was found to be 22900 nM. In addition, the EC50 amounted to 777 nM in the series with SARS-CoV-2 (setting [7]) and 185 nM in series [2].

(Values after US12404289B2 (Gilead Sciences, Inc., priority 2020, dated 2025).)
